From patent US10000456B2, “Polycyclic compounds as lysophosphatidic acid receptor antagonists” (AMIRA PHARMACEUTICALS, INC., priority 2009, dated 2018)

System: A2058 human melanoma cells
Test: LPA1 chemotaxis assay
Type: cell-based
Conditions: LPA 100 nM, read-out: IC50, inhibition of LPA-driven chemotaxis
Experimental: Chemotaxis of the A2058 human melanoma cells was measured using the Neuroprobe CHEMOTX® System plates ([…], 5.7 mm diameter sites). The filter sites were coated with 0.001% fibronectin (Sigma) in 20 mM Hepes, pH 7.4 and allowed to dry. A2058 cells were serum-starved for 24 hours, then harvested with Cell Stripper and resuspended in DMEM containing 0.1% fatty-acid-free bovine serum albumin (BSA) to a concentration of 1×10^6/ml. Cells were mixed with an equal volume of test compound (2×) in DMEM containing 0.1% fatty-acid-free BSA and incubated at 37° C. for 15 minutes. LPA (100 nM in DMEM containing 0.1% fatty-acid-free BSA) or vehicle was added to each well of the lower chamber and 50 μl of the cell suspension/test compound mix was applied to the upper portion of the CHEMOTX® plate. Plates were incubated at 37° C. for three hours and then the cells removed from the upper portion by rinsing with PBS and scraping. The filter was dried then stained with HEMA 3® Staining System (Fisher Scientific). The absorbance of the filter was read at 590 nm and IC50s were determined using SYMYX® Assay Explorer.

Question: For Cc1noc(-c2ccc(-c3ccc(C4(C(=O)O)CC4)cc3)cc2)c1C(O)c1nnc(Cc2ccccc2)o1 (stereo not shown) [Compound 13, 1-(4′-{4-[(5-Benzyl-[1,3,4]oxadiazol-2-yl)-hydroxy-methyl]-3-methyl-isoxazol-5-yl}-biphenyl-4-yl)-cyclopropanecarboxylic acid], which IC50 is on record?
Answer: < 100 nM

Question: Which IC50 does the source give for Cc1noc(-c2ccc(-c3ccc(C4(C(=O)O)CC4)cc3)cc2)c1Nc1cccc(-c2cccc(F)c2Cl)n1 [Compound 81, 1-(4′-{4-[6-(2-Chloro-3-fluoro-phenyl)-pyridin-2-ylamino]-3-methyl-isoxazol-5-yl}-biphenyl-4-yl)-cyclopropanecarboxylic acid] here?
Answer: < 100 nM

Question: Which IC50 does the source give for COc1ccc(F)cc1-c1cccc(Nc2c(C)noc2-c2ccc(-c3ccc(C4(C(=O)O)CC4)cc3)cc2)n1 [Compound 75, 1-(4′-{4-[6-(5-Fluoro-2-methoxy-phenyl)-pyridin-2-ylamino]-3-methyl-isoxazol-5-yl}-biphenyl-4-yl)-cyclopropanecarboxylic acid] here?
Answer: < 100 nM

Question: With Cc1noc(-c2ccc(-c3ccc(C4(C(=O)O)CC4)cc3)cc2)c1C(O)c1cn(C(C)c2ccccc2)nn1 (stereo not shown) [Compound 23, 1-[4′-(4-{Hydroxy-[1-(1-phenyl-ethyl)-1H-[1,2,3]triazol-4-yl]-methyl}-3-methyl-isoxazol-5-yl)-biphenyl-4-yl]-cyclopropanecarboxylic acid] as the compound, how does the IC50 read?
Answer: < 100 nM

Question: For Cc1noc(-c2ccc(-c3ccc(C4(C(=O)O)CC4)cc3)cc2)c1Nc1cc(-c2ccccc2)ccn1 [Compound 67, 1-{4′-[3-Methyl-4-(4-phenyl-pyridin-2-ylamino)-isoxazol-5-yl]-biphenyl-4-yl}-cyclopropanecarboxylic acid], which IC50 is on record?
Answer: < 100 nM

Question: With Cc1noc(-c2ccc(-c3ccc(C4(C(=O)O)CC4)cc3)cc2)c1Nc1cncc(-c2cccc(C(F)(F)F)c2)c1 [Compound 68, 1-(4′-{3-Methyl-4-[5-(3-trifluoromethyl-phenyl)-pyridin-3-ylamino]-isoxazol-5-yl}-biphenyl-4-yl)-cyclopropanecarboxylic acid] as the compound, how does the IC50 read?
Answer: < 100 nM

Question: How did the IC50 turn out when Cc1noc(-c2ccc(-c3ccc(C4(C(=O)O)CC4)cc3)cc2)c1Nc1cncc(-c2cccc(F)c2)c1 [Compound 59, 1-(4′-{4-[5-(3-Fluoro-phenyl)-pyridin-3-ylamino]-3-methyl-isoxazol-5-yl}-biphenyl-4-yl)-cyclopropanecarboxylic acid] was run?
Answer: < 100 nM

Question: How did the IC50 turn out when Cc1noc(-c2ccc(-c3ccc(C4(C(=O)O)CC4)cc3)cc2)c1Nc1cncc(-c2cccc(F)c2Cl)c1 [Compound 82, 1-(4′-{4-[5-(2-Chloro-3-fluoro-phenyl)-pyridin-3-ylamino]-3-methyl-isoxazol-5-yl}-biphenyl-4-yl)-cyclopropanecarboxylic acid] was run?
Answer: < 100 nM

Question: How did the IC50 turn out when Cc1noc(-c2ccc(-c3ccc(C4(C(=O)NS(C)(=O)=O)CC4)cc3)cc2)c1C(O)c1nnc(Cc2ccccc2)o1 (single isomer, unassigned) [Compound 92, N-[1-(4′-{4-[(5-Benzyl-[1,3,4]oxadiazol-2-yl)-hydroxy-methyl]-3-methyl-isoxazol-5-yl}-biphenyl-4-yl)-cyclopropanecarbonyl]-methanesulfonamide] was run?
Answer: < 100 nM

Question: With Cc1noc(-c2ccc(-c3ccc(C4(C(=O)O)CC4)cc3)cc2)c1Nc1cccc(Cc2cccc(F)c2)n1 [Compound 46, 1-(4′-{4-[6-(3-Fluoro-benzyl)-pyridin-2-ylamino]-3-methyl-isoxazol-5-yl}-biphenyl-4-yl)-cyclopropanecarboxylic acid] as the compound, how does the IC50 read?
Answer: < 100 nM

Question: Cc1noc(-c2ccc(-c3ccc(C4(C(=O)O)CC4)cc3)cc2)c1Nc1cccc(-c2cccc(F)c2)n1 [Compound 52, 1-(4′-{4-[6-(3-Fluoro-phenyl)-pyridin-2-ylamino]-3-methyl-isoxazol-5-yl}-biphenyl-4-yl)-cyclopropanecarboxylic acid] was tested. Which IC50 did it give?
Answer: < 100 nM

Question: With Cc1noc(-c2ccc(-c3ccc(C4(C(=O)O)CC4)cc3)cc2)c1C(O)c1cncc(Cc2ccccc2)c1 (stereo not shown) [Compound 27, 1-(4′-{4-[(5-Benzyl-pyridin-3-yl)-hydroxy-methyl]-3-methyl-isoxazol-5-yl}-biphenyl-4-yl)-cyclopropanecarboxylic acid] as the compound, how does the IC50 read?
Answer: < 100 nM

Question: Cc1noc(-c2ccc(-c3ccc(C4(C(=O)NS(C)(=O)=O)CC4)cc3)cc2)c1Nc1cccc(Cc2ccccc2)n1 [Compound 95, N-(1-{4′-[4-(6-Benzyl-pyridin-2-ylamino)-3-methyl-isoxazol-5-yl]-biphenyl-4-yl}-cyclopropanecarbonyl)-methanesulfonamide] was tested. Which IC50 did it give?
Answer: < 100 nM

Question: How did the IC50 turn out when Cc1noc(-c2ccc(-c3ccc(C4(C(=O)O)CC4)cc3)cc2)c1Nc1cccc(Cc2ccccc2F)n1 [Compound 45, 1-(4′-{4-[6-(2-Fluoro-benzyl)-pyridin-2-ylamino]-3-methyl-isoxazol-5-yl}-biphenyl-4-yl)-cyclopropanecarboxylic acid] was run?
Answer: < 100 nM

Question: For Cc1noc(-c2ccc(-c3ccc(C4(C(=O)O)CC4)cc3)cc2)c1Nc1cccc(-c2ccccc2)n1 [Compound 33, 1-{4′-[3-Methyl-4-(6-phenyl-pyridin-2-ylamino)-isoxazol-5-yl]-biphenyl-4-yl}-cyclopropanecarboxylic acid], which IC50 is on record?
Answer: < 100 nM

Question: Which IC50 does the source give for Cc1noc(-c2ccc(-c3ccc(C4(C(=O)O)CC4)cc3)cc2)c1Nc1cccc(-c2ccccc2)c1 [Compound 39, 1-{4′-[4-(Biphenyl-3-ylamino)-3-methyl-isoxazol-5-yl]-biphenyl-4-yl}-cyclopropanecarboxylic acid] here?
Answer: < 100 nM

Question: Which IC50 does the source give for Cc1noc(-c2ccc(-c3ccc(C4(C(=O)NS(C)(=O)=O)CC4)cc3)cc2)c1C(O)c1cn(Cc2ccccc2)nn1 (single isomer, unassigned) [Compound 91, N-[1-(4′-{4-[(1-Benzyl-1H-[1,2,3]triazol-4-yl)-hydroxy-methyl]-3-methyl-isoxazol-5-yl}-biphenyl-4-yl)-cyclopropanecarbonyl]-methanesulfonamide] here?
Answer: < 100 nM

Question: For Cc1noc(-c2ccc(-c3ccc(C4(C(=O)O)CC4)cc3)cc2)c1Nc1cccc(-c2cccc(F)c2C)n1 [Compound 83, 1-(4′-{4-[6-(3-Fluoro-2-methyl-phenyl)-pyridin-2-ylamino]-3-methyl-isoxazol-5-yl}-biphenyl-4-yl)-cyclopropanecarboxylic acid], which IC50 is on record?
Answer: < 100 nM

Question: How did the IC50 turn out when Cc1noc(-c2ccc(-c3ccc(C4(C(=O)O)CC4)cc3)cc2)c1C(O)c1cccc(Cc2ccccc2)c1 (stereo not shown) [Compound 26, 1-(4′-{4-[(3-Benzyl-phenyl)-hydroxy-methyl]-3-methyl-isoxazol-5-yl}-biphenyl-4-yl)-cyclopropanecarboxylic acid] was run?
Answer: < 100 nM

Question: With Cc1noc(-c2ccc(-c3ccc(C4(C(=O)O)CC4)cc3)cc2)c1Nc1nccc(-c2ccccc2)n1 [Compound 66, 1-{4′-[3-Methyl-4-(4-phenyl-pyrimidin-2-ylamino)-isoxazol-5-yl]-biphenyl-4-yl}-cyclopropanecarboxylic acid] as the compound, how does the IC50 read?
Answer: < 100 nM

Question: With Cc1noc(-c2ccc(-c3ccc(C4(C(=O)O)CC4)cc3)cc2)c1Nc1cccc(-c2cc(F)ccc2Cl)n1 [Compound 79, 1-(4′-{4-[6-(2-Chloro-5-fluoro-phenyl)-pyridin-2-ylamino]-3-methyl-isoxazol-5-yl}-biphenyl-4-yl)-cyclopropanecarboxylic acid] as the compound, how does the IC50 read?
Answer: < 100 nM

Question: For Cc1noc(-c2ccc(-c3ccc(C4(C(=O)O)CC4)cc3)cc2)c1Nc1cncc(-c2ccccc2Cl)c1 [Compound 64, 1-(4′-{4-[5-(2-Chloro-phenyl)-pyridin-3-ylamino]-3-methyl-isoxazol-5-yl}-biphenyl-4-yl)-cyclopropanecarboxylic acid], which IC50 is on record?
Answer: < 100 nM

Question: For Cc1noc(-c2ccc(-c3ccc(C4(C(=O)O)CC4)cc3)cc2)c1Nc1cccc(-c2ccccc2Cl)n1 [Compound 60, 1-(4′-{4-[6-(2-Chloro-phenyl)-pyridin-2-ylamino]-3-methyl-isoxazol-5-yl}-biphenyl-4-yl)-cyclopropanecarboxylic acid], which IC50 is on record?
Answer: < 100 nM

Question: How did the IC50 turn out when Cc1noc(-c2ccc(-c3ccc(C4(C(=O)O)CC4)cc3)cc2)c1Nc1cccc(Cc2ccc(F)cc2)n1 [Compound 47, 1-(4′-{4-[6-(4-Fluoro-benzyl)-pyridin-2-ylamino]-3-methyl-isoxazol-5-yl}-biphenyl-4-yl)-cyclopropanecarboxylic acid] was run?
Answer: < 100 nM

Question: Which IC50 does the source give for Cc1noc(-c2ccc(-c3ccc(C4(C(=O)O)CC4)cc3)cc2)c1Nc1cccc(-c2cccc(C(F)(F)F)c2)n1 [Compound 41, 1-(4′-{3-Methyl-4-[6-(3-trifluoromethyl-phenyl)-pyridin-2-ylamino]-isoxazol-5-yl}-biphenyl-4-yl)-cyclopropanecarboxylic acid] here?
Answer: < 100 nM

Question: Which IC50 does the source give for Cc1noc(-c2ccc(-c3ccc(C4(C(=O)O)CC4)cc3)cc2)c1[C@@H](O)c1cn([C@H](C)c2ccccc2)nn1 [Compound 32, 1-[4′-(4-{(R)-Hydroxy-[1-((R)-1-phenyl-ethyl)-1H-[1,2,3]triazol-4-yl]-methyl}-3-methyl-isoxazol-5-yl)-biphenyl-4-yl]-cyclopropanecarboxylic acid] here?
Answer: < 100 nM

Question: For Cc1noc(-c2ccc(-c3ccc(C4(C(=O)O)CC4)cc3)cc2)c1Nc1nnc(Cc2ccccc2)o1 [Compound 44, 1-{4′-[4-(5-Benzyl-[1,3,4]oxadiazol-2-ylamino)-3-methyl-isoxazol-5-yl]-biphenyl-4-yl}-cyclopropanecarboxylic acid], which IC50 is on record?
Answer: < 100 nM

Question: Cc1noc(-c2ccc(-c3ccc(C4(C(=O)O)CC4)cc3)cc2)c1Nc1cccc(Cc2ccccc2)n1 [Compound 38, 1-{4′-[4-(6-Benzyl-pyridin-2-ylamino)-3-methyl-isoxazol-5-yl]-biphenyl-4-yl}-cyclopropanecarboxylic acid] was tested. Which IC50 did it give?
Answer: < 100 nM
